Results taken from the supplement of paper PMC11451515.

What was measured:
P12-Ichikawa [1] = experiment: cell viability relative to DMSO control; higher = less cytotoxic; details: HPLM + 10% dialyzed FBS, 48 h
Summary of the method: (§1)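 Viability, reported as a per-plate percentage of DMSO wells with cell-free wells as background, came from CellTiter-Glo One luminescence. Reading took place after 48 h at 37°C. Before that, NOMO1 or SEM (500 cells/well) or P12-Ichikawa (1000 cells/well) leukemia cells, adapted for at least four passages in each medium, were seeded in 1536-well plates (5 μl) and pin-dosed with library compounds in DMSO, 47 μM to 0.79 nM over 11 threefold points.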

SEM cells [2] = experiment: as above; details: 48 h
Summary of the method: as §1

P12-Ichikawa [3] = experiment: AUC of viability dose-response curve (% viability x log10 dose units); higher = less sensitive; details: 48 h
Summary of the method: (§2)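 In 1536-well plates, leukemia cells adapted to each medium (500 or 1000 cells/well) were exposed for 48 h at 37°C to library compounds in DMSO across 11 threefold doses, 47 μM down to 0.79 nM. Viability was read by CellTiter-Glo One luminescence and normalised per plate to DMSO and cell-free wells. A four-parameter log-logistic fit over log10 doses was integrated by trapezoidal rule. This yielded the area under the curve, with over-full-viability curves scaled and quality-control failures dropped.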

SEM cells [4] = experiment: as above; details: 48 h
Summary of the method: as §2

NOMO1 = experiment: as above; details: 48 h
Summary of the method: as §2

[5] = RPMI 5 mM glucose + 10% FBS, 0.000781 µM
[6] = RPMI 5 mM glucose + 10% FBS, 0.00234 µM
[7] = RPMI 5 mM glucose + 10% FBS, 0.00702 µM
[8] = RPMI 5 mM glucose + 10% FBS, 0.0211 µM
[9] = RPMI 5 mM glucose + 10% FBS, 0.0632 µM
[10] = RPMI 5 mM glucose + 10% FBS, 0.19 µM
[11] = RPMI 5 mM glucose + 10% FBS, 0.569 µM
[12] = RPMI 5 mM glucose + 10% FBS, 1.71 µM
[13] = RPMI 5 mM glucose + 10% FBS, 5.12 µM
[14] = RPMI 5 mM glucose + 10% FBS, 15.4 µM
[15] = RPMI 5 mM glucose + 10% FBS, 46.1 µM
[16] = RPMI 5 mM glucose + 10% dialyzed FBS

SMILES | cell viability (SEM cells [2]; [5]) [%] | cell viability (SEM cells [2]; [6]) [%] | cell viability (SEM cells [2]; [7]) [%] | cell viability (SEM cells [2]; [8]) [%] | cell viability (SEM cells [2]; [9]) [%] | cell viability (SEM cells [2]; [10]) [%] | cell viability (SEM cells [2]; [11]) [%] | cell viability (SEM cells [2]; [12]) [%] | cell viability (SEM cells [2]; [13]) [%] | cell viability (SEM cells [2]; [14]) [%] | cell viability (SEM cells [2]; [15]) [%] | AUC of viability dose-response curve (P12-Ichikawa [3]; HPLM + 10% dialyzed FBS) | AUC of viability dose-response curve (P12-Ichikawa [3]; RPMI 5 mM glucose + 10% FBS) | AUC of viability dose-response curve (P12-Ichikawa [3]; [16]) | AUC of viability dose-response curve (SEM cells [4]; HPLM + 10% dialyzed FBS) | AUC of viability dose-response curve (SEM cells [4]; RPMI 5 mM glucose + 10% FBS) | AUC of viability dose-response curve (SEM cells [4]; [16]) | AUC of viability dose-response curve (NOMO1; HPLM + 10% dialyzed FBS) | AUC of viability dose-response curve (NOMO1; RPMI 5 mM glucose + 10% FBS) | AUC of viability dose-response curve (NOMO1; [16]) | other results
CCOC(=O)[C@H](CCc1ccccc1)N[C@@H](C)C(=O)N1[C@H](C(=O)O)C[C@@H]2CCC[C@@H]21 | 110 | 116 | 117 | 143 | 147 | 127 | 135 | 113 | 121 | 89 | 7.67 | 451 | 451 | 450 | 450 | 440 | 451 | 443 | 449 | 444 | cell viability (P12-Ichikawa [1]; 0.000781 µM): 117%; cell viability (P12-Ichikawa [1]; 0.00234 µM): 124%; cell viability (P12-Ichikawa [1]; 0.00702 µM): 127%; cell viability (P12-Ichikawa [1]; 0.0211 µM): 124%; cell viability (P12-Ichikawa [1]; 0.0632 µM): 126%; cell viability (P12-Ichikawa [1]; 0.19 µM): 128%; cell viability (P12-Ichikawa [1]; 0.569 µM): 123%; cell viability (P12-Ichikawa [1]; 1.71 µM): 126%; cell viability (P12-Ichikawa [1]; 5.12 µM): 122%; cell viability (P12-Ichikawa [1]; 15.4 µM): 115%; cell viability (P12-Ichikawa [1]; 46.1 µM): 7.37%
Clc1ccccc1CN1CCc2sccc2C1 | 94.3 | 148 | 120 | 139 | 133 | 152 | 135 | 141 | 144 | 140 | 33.3 | 348 | 340 | 373 | 453 | 459 | 460 | 323 | 315 | 322 | cell viability (P12-Ichikawa [1]; 0.000781 µM): 120%; cell viability (P12-Ichikawa [1]; 0.00234 µM): 121%; cell viability (P12-Ichikawa [1]; 0.00702 µM): 117%; cell viability (P12-Ichikawa [1]; 0.0211 µM): 130%; cell viability (P12-Ichikawa [1]; 0.0632 µM): 129%; cell viability (P12-Ichikawa [1]; 0.19 µM): 132%; cell viability (P12-Ichikawa [1]; 0.569 µM): 129%; cell viability (P12-Ichikawa [1]; 1.71 µM): 59.8%; cell viability (P12-Ichikawa [1]; 5.12 µM): 15.5%; cell viability (P12-Ichikawa [1]; 15.4 µM): 14.4%; cell viability (P12-Ichikawa [1]; 46.1 µM): 16.7%
C[C@@H](N)c1ccc(C(=O)Nc2ccnc3[nH]ccc23)cc1 | 115 | 135 | 124 | 155 | 145 | 140 | 130 | 139 | 114 | 86.7 | 52.5 | 471 | 461 | 466 | 454 | 437 | 455 | 462 | 455 | 455 | cell viability (SEM cells [2]; HPLM + 10% dialyzed FBS, 0.000781 µM): 99.4%; cell viability (SEM cells [2]; HPLM + 10% dialyzed FBS, 0.00234 µM): 115%; cell viability (SEM cells [2]; HPLM + 10% dialyzed FBS, 0.00702 µM): 122%; cell viability (SEM cells [2]; HPLM + 10% dialyzed FBS, 0.0211 µM): 121%; cell viability (SEM cells [2]; HPLM + 10% dialyzed FBS, 0.0632 µM): 121%; cell viability (SEM cells [2]; HPLM + 10% dialyzed FBS, 0.19 µM): 144%; cell viability (SEM cells [2]; HPLM + 10% dialyzed FBS, 0.569 µM): 136%; cell viability (SEM cells [2]; HPLM + 10% dialyzed FBS, 1.71 µM): 118%; cell viability (SEM cells [2]; HPLM + 10% dialyzed FBS, 5.12 µM): 118%; cell viability (SEM cells [2]; HPLM + 10% dialyzed FBS, 15.4 µM): 105%; cell viability (SEM cells [2]; HPLM + 10% dialyzed FBS, 46.1 µM): 40.7%
